In the supplement of paper PMC11208160:

Assay: recombinant UMI read abundance after kanamycin selection (control-corrected) (log10(CPM+1)); higher = more efficient recombination; extreme values may be limits of the assay; sequences stand for … in AGTGCAGAGAAAATCGGCCAGTTTTCTCTGCCTGCAGTCCGCATGCCGTGGGACCCCTTGGGTTCTAACCTGTTGCCTAGATTTATGCAGCGGACTGCCTTTCTCCCAAAGTGATAAACCGG…AGGTTGGTTTCACT; site = the 11-nt donor
Procedure, shortened: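 Under IPTG (0.07 mM) plus kanamycin, or without selection, Escherichia coli carrying a UMI-tagged donor and donor-binding-loop pair library and a target plasmid for the IS621 bridge recombinase were plated in two replicates. Recombinant UMIs were PCR-amplified across the donor–target junction and sequenced. Counts were converted to CPM, averaged over replicates, scaled by control-derived factors and reported as log10(CPM+1).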
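Also: IS621 bridge recombinase in Escherichia coli cells against a fixed T5 target plasmid.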

First: GTCCTTACATGGACCGGTTTTCCCGGTAATCCGTATTTGAG (site GTCCTTACTCT)
Second: GTCGAACCATGGACCGGTTTTCCCGGTAATCCGTATTTGAC (site GTCGAACCTGT)
The “recombinant UMI read abundance (log10)” value of the first is higher: 0.376 for the first, 0 for the second.

Going from “GTCGAATCATGGACCGGTTTTCCCGGTAATCCGTATTTGGG (site GTCGAATCTCC)” to “GTCGAGTCATGGACCGGTTTTCCCGGTAATCCGTATTTGTT (site GTCGAGTCTAA)”, the “recombinant UMI read abundance (log10)” value rises from 0.914 to 2.79.

Going from “GTCGGGACATGGACCGGTTTTCCCGGTAATCCGTATTTGGG (site GTCGGGACTCC)” to “GTCGGGGCATGGACCGGTTTTCCCGGTAATCCGTATTTGGC (site GTCGGGGCTGC)”, the “recombinant UMI read abundance (log10)” value rises from 0.0114 to 1.22.

Going from “GTCGTAGCATGGACCGGTTTTCCCGGTAATCCGTATTTGCC (site GTCGTAGCTGG)” to “GTCGTTGCATGGACCGGTTTTCCCGGTAATCCGTATTTGAA (site GTCGTTGCTTT)”, the “recombinant UMI read abundance (log10)” value falls from 2.67 to 2.14.

Compared with “GTCTATACATGGACCGGTTTTCCCGGTAATCCGTATTTGAC (site ATCTATACTGT)”, “GTCTATACATGGACCGGTTTTCCCGGTAATCCGTATTTGAC (site CTCTATACTGT)” is lower in “recombinant UMI read abundance (log10)” value: 0.841 for the first, 0.0424 for the second.

First: GTCTATACATGGACCGGTTTTCCCGGTAATCCGTATTTGAC (site GTCTATACTGT)
Second: GTCTATACATGGACCGGTTTTCCCGGTAATCCGTATTTGAC (site TTCTATACTGT)
The “recombinant UMI read abundance (log10)” value of the first is higher: 2.33 for the first, 1.01 for the second.

“GTCTATTCATGGACCGGTTTTCCCGGTAATCCGTATTTGAC (site GTCTATTCTGT)” and “GTCTGATCATGGACCGGTTTTCCCGGTAATCCGTATTTGCG (site GTCTGATCTCG)” are within 0.2 log units of each other in “recombinant UMI read abundance (log10)” value: 2.09 for the first, 2.17 for the second.

“GTCTGATCATGGACCGGTTTTCCCGGTAATCCGTATTTGGG (site GTCTGATCTCC)” and “GTCTGCACATGGACCGGTTTTCCCGGTAATCCGTATTTGTA (site GTATGCACTTA)” are within 0.2 log units of each other in “recombinant UMI read abundance (log10)” value: 0.011 for the first, 0.0171 for the second.

Compared with “GTCTGCACATGGACCGGTTTTCCCGGTAATCCGTATTTGTA (site GTCTGCACTTA)”, “GTCTGCACATGGACCGGTTTTCCCGGTAATCCGTATTTGTA (site GTGTGCACTTA)” is lower in “recombinant UMI read abundance (log10)” value: 1.44 for the first, 0.0326 for the second.

Compared with “GTCTGCACATGGACCGGTTTTCCCGGTAATCCGTATTTGTA (site GTTTGCACTTA)”, “GTGAGAACATGGACCGGTTTTCCCGGTAATCCGTATTTGGC (site GTAAGAACTGC)” is higher in “recombinant UMI read abundance (log10)” value: 0.0829 for the first, 2.2 for the second.

First: GTGAGAACATGGACCGGTTTTCCCGGTAATCCGTATTTGGC (site GTCAGAACTGC)
Second: GTGAGAACATGGACCGGTTTTCCCGGTAATCCGTATTTGGC (site GTGAGAACTGC)
The “recombinant UMI read abundance (log10)” value of the first is lower: 0 for the first, 1.49 for the second.

Compared with “GTGAGAACATGGACCGGTTTTCCCGGTAATCCGTATTTGGC (site GTTAGAACTGC)”, “GTGAGGTCATGGACCGGTTTTCCCGGTAATCCGTATTTGCT (site GTGAGGTCTAG)” is higher in “recombinant UMI read abundance (log10)” value: 0 for the first, 3.11 for the second.

Going from “GTGATTCCATGGACCGGTTTTCCCGGTAATCCGTATTTGCA (site GTGATTCCTTG)” to “GTGATTCCATGGACCGGTTTTCCCGGTAATCCGTATTTGGA (site GTGATTCCTTC)”, the “recombinant UMI read abundance (log10)” value falls from 1.09 to 0.421.

First: GTGATTCCATGGACCGGTTTTCCCGGTAATCCGTATTTGGT (site GTGATTCCTAC)
Second: GTGCCTACATGGACCGGTTTTCCCGGTAATCCGTATTTGGC (site GTGCCTACTGC)
The “recombinant UMI read abundance (log10)” value of the first is lower: 0.318 for the first, 1.12 for the second.

“GTGCTGACATGGACCGGTTTTCCCGGTAATCCGTATTTGTT (site GTGCTGACTAA)” and “GTGCTTACATGGACCGGTTTTCCCGGTAATCCGTATTTGTA (site GTGCTTACTTA)” are within 0.2 log units of each other in “recombinant UMI read abundance (log10)” value: 0.314 for the first, 0.318 for the second.

First: GTGGAGGCATGGACCGGTTTTCCCGGTAATCCGTATTTGCG (site GTGGAGGCTCA)
Second: GTGGAGGCATGGACCGGTTTTCCCGGTAATCCGTATTTGCG (site GTGGAGGCTCC)
The “recombinant UMI read abundance (log10)” value of the first is higher: 1.56 for the first, 0.392 for the second.

Going from “GTGGAGGCATGGACCGGTTTTCCCGGTAATCCGTATTTGCG (site GTGGAGGCTCG)” to “GTGGAGGCATGGACCGGTTTTCCCGGTAATCCGTATTTGCG (site GTGGAGGCTCT)”, the “recombinant UMI read abundance (log10)” value falls from 2.28 to 0.716.

“GTGGAGGCATGGACCGGTTTTCCCGGTAATCCGTATTTGTC (site GTGGAGGCTAA)” and “GTGGAGGCATGGACCGGTTTTCCCGGTAATCCGTATTTGTC (site GTGGAGGCTCA)” are within 0.2 log units of each other in “recombinant UMI read abundance (log10)” value: 0.657 for the first, 0.549 for the second.

First: GTGGAGGCATGGACCGGTTTTCCCGGTAATCCGTATTTGTC (site GTGGAGGCTGA)
Second: GTGGAGGCATGGACCGGTTTTCCCGGTAATCCGTATTTGTC (site GTGGAGGCTTA)
The “recombinant UMI read abundance (log10)” value of the first is higher: 2.67 for the first, 1.64 for the second.

First: GTGGAGGCATGGACCGGTTTTCCCGGTAATCCGTATTTGTG (site ATGGAGGCTCA)
Second: GTGGAGGCATGGACCGGTTTTCCCGGTAATCCGTATTTGTG (site CTGGAGGCTCA)
The “recombinant UMI read abundance (log10)” value of the first is higher: 1.53 for the first, 0.921 for the second.

“GTGGAGGCATGGACCGGTTTTCCCGGTAATCCGTATTTGTG (site GAGGAGGCTCA)” and “GTGGAGGCATGGACCGGTTTTCCCGGTAATCCGTATTTGTG (site GCGGAGGCTCA)” are within 0.2 log units of each other in “recombinant UMI read abundance (log10)” value: 0.602 for the first, 0.6 for the second.

Compared with “GTGGAGGCATGGACCGGTTTTCCCGGTAATCCGTATTTGTG (site GGGGAGGCTCA)”, “GTGGAGGCATGGACCGGTTTTCCCGGTAATCCGTATTTGTG (site GTAGAGGCTCA)” is higher in “recombinant UMI read abundance (log10)” value: 0 for the first, 1.94 for the second.

Going from “GTGGAGGCATGGACCGGTTTTCCCGGTAATCCGTATTTGTG (site GTCGAGGCTCA)” to “GTGGAGGCATGGACCGGTTTTCCCGGTAATCCGTATTTGTG (site GTGAAGGCTCA)”, the “recombinant UMI read abundance (log10)” value rises from 0.00904 to 1.1.

Compared with “GTGGAGGCATGGACCGGTTTTCCCGGTAATCCGTATTTGTG (site GTGCAGGCTCA)”, “GTGGAGGCATGGACCGGTTTTCCCGGTAATCCGTATTTGTG (site GTGGAAGCTCA)” is higher in “recombinant UMI read abundance (log10)” value: 0.25 for the first, 2.56 for the second.

“GTGGAGGCATGGACCGGTTTTCCCGGTAATCCGTATTTGTG (site GTGGACGCTCA)” and “GTGGAGGCATGGACCGGTTTTCCCGGTAATCCGTATTTGTG (site GTGGAGACTCA)” are within 0.2 log units of each other in “recombinant UMI read abundance (log10)” value: 1.02 for the first, 0.959 for the second.

First: GTGGAGGCATGGACCGGTTTTCCCGGTAATCCGTATTTGTG (site GTGGAGCCTCA)
Second: GTGGAGGCATGGACCGGTTTTCCCGGTAATCCGTATTTGTG (site GTGGAGGCTAA)
The “recombinant UMI read abundance (log10)” value of the first is lower: 0.0109 for the first, 0.431 for the second.

Compared with “GTGGAGGCATGGACCGGTTTTCCCGGTAATCCGTATTTGTG (site GTGGAGGCTCA)”, “GTGGAGGCATGGACCGGTTTTCCCGGTAATCCGTATTTGTG (site GTGGAGGCTCC)” is lower in “recombinant UMI read abundance (log10)” value: 1.41 for the first, 0.284 for the second.

Going from “GTGGAGGCATGGACCGGTTTTCCCGGTAATCCGTATTTGTG (site GTGGAGGCTCG)” to “GTGGAGGCATGGACCGGTTTTCCCGGTAATCCGTATTTGTG (site GTGGAGGCTCT)”, the “recombinant UMI read abundance (log10)” value falls from 1.53 to 1.15.

In the case of “GTGGAGGCATGGACCGGTTTTCCCGGTAATCCGTATTTGTG (site GTGGAGGCTGA)”, the “recombinant UMI read abundance (log10)” value is reported as 0.461.
